Source: patent US20030092739A1, “Heterocyclic compounds” (priority 2001, published 2003)
Like-named read-outs stand apart in the source and are kept apart here.

System: aphids
Assay: Biological Test On Aphid (spray on cabbage leaf in Petri dish)
Assay type: in vivo
Settings: for Number of dead aphids 1st: 1st replicate; for Number of dead aphids 1st / Number of dead aphids 2nd / Number of dead aphids 3rd / Number of dead aphids 4th: 20 aphids on cabbage leaf, 9.6% w/w pesticide reagent diluted 1000 times with water, sprayed, examined 24 hours later; for Number of dead aphids 2nd: 2nd replicate; for Number of dead aphids 3rd: 3rd replicate; for Number of dead aphids 4th: 4th replicate; for pest or weed control at 96 µg/mL: read-out: Kill ratio; for Number of dead aphids Average: average of four replicates
Method: The compound obtained from Example 1 was mixed with a solvent to form a 9.6% w/w pesticide reagent. An 8 cm×8 cm piece of clean cabbage leaf was placed on a lump of wet cotton in a Petri dish, and then 20 aphids were put on the cabbage leaf in the Petri dish. The thus formed pesticide reagent was diluted 1000 times with water to form a dilution that was then sprayed onto the cabbage leaf in the Petri dish with a predetermined amount. The number of dead aphids was examined 24 hours later, and the kill ratio was calculated. The test was carried out through four replicates.
Example 9 was repeated, except that the compound employed in Example 9 was replaced by the compound obtained from a respective one of the Examples 2 to 8.
Example 9 was repeated, except that the compound employed in Example 9 was replaced by imidachloprid, a heterocyclic compound of the formula disclosed in U.S. Pat. No. 4,742,060 that can be useful as pesticides.

[1] = 20 aphids, 9.6% w/w reagent diluted 1000 times, 24 hours
[2] = calculated from number of dead aphids, 20 aphids, 9.6% w/w reagent diluted 1000 times, 24 hours, four replicates

| SMILES | Number of dead aphids 1st | Number of dead aphids 2nd | Number of dead aphids 3rd | Number of dead aphids 4th | pest or weed control at 96 µg/mL (24 h) | Number of dead aphids Average [1] | pest or weed control at 96 µg/mL [2] | Kill ratio [2] |
| --- | --- | --- | --- | --- | --- | --- | --- | --- |
| N#CNCc1ccc(Cl)nc1 [Example 9, 6-chloro-pyridin-3-ylmethyl-cyanamide] | 19 | 19 | 20 | 20 | 96.2% | 19.25 | – | – |
| Clc1ccc(COc2cccc3ccccc23)cn1 [Example 13, 2-chloro-5-(naphthalen-1-yloxymethyl)-pyridine] | 18 | 17 | 16 | 17 | – | 17 | 84.6% | – |
| CSc1c(C)cc(OCc2ccc(Cl)nc2)cc1C [Example 12, 2-chloro-5-(3,5-dimethyl-4-methylsulfanyl-phenoxymethyl)-pyridine] | 20 | 19 | 19 | 19 | – | 19.25 | 96.2% | – |
| CC1(C)Cc2cccc(OCc3ccc(Cl)nc3)c2O1 [Example 14, 2-chloro-5-(2,2-dimethyl-2,3-dihydro-benzofuran-7-yloxymethyl)-pyridine] | 17 | 16 | 18 | 16 | – | 16.75 | 83.3% | – |
| CC(C)Oc1ccccc1OCc1ccc(Cl)nc1 [Example 11, 2-chloro-5-(2-isopropoxy-phenoxymethyl)-pyridine] | 16 | 19 | 18 | 18 | – | 17.75 | 88.5% | – |
| CNC(=O)Nc1nc2ccccc2n1Cc1csc(Cl)n1 [Example 16, 1-[1-(2-chloro-thiazol-4-ylmethyl)-1H-benzoimidazol-2-yl]-3-methyl-urea] | 19 | 16 | 16 | 16 | – | 16.75 | 83.3% | – |
| CNC(=O)Nc1nc2ccccc2n1Cc1ccc(Cl)nc1 [Example 15, 1-[1-(6-chloro-pyridin-3-ylmethyl)-1H-benzoimidazol-2-yl]-3-mehtyl-urea] | 17 | 17 | 16 | 16 | 82% | 16.5 | – | – |
| O=[N+]([O-])/N=C1\NCCN1Cc1ccc(Cl)nc1 [Comparative Example 1, imidachloprid, reference compound] | 17 | 17 | 18 | 17 | – | 17.25 | – | 85.90 |
| CS/C(C)=N/OCc1ccc(Cl)nc1 [Example 10, N-(6-chloro-pyridin-3-ylmethoxy)-thioacetimidic Acid Methyl Ester] | 18 | 17 | 18 | 17 | – | 17.5 | 87.2% | – |
